Experimental findings from US9975944B2, “Synthetic peptides for the treatment of autoimmune diseases” (TEL HASHOMER MEDICAL RESEARCH INFRASTRUCTURE AND SERVICES …, priority 2013, dated 2018) are described below.

Assay [1] deals with anti citrullinated filaggrin ACPA. The assay can be described thus: Peptide inhibition assay in ELISA, plates coated with cit-filaggrin. The following applies: sera of ACPA-positive RA patients diluted to about 50% binding OD, 2 h preincubation at room temperature. The arrangement: species or system human. Here is the method: (§1) Peptide inhibition assay in ELISA was used to confirm the cross-reactivity of the Cit-ME peptide to the following anti-citrullinated protein antibodies (ACPA): anti citrullinated filaggrin, anti cit-β-fibrinogen, anti cit-collagen and anti cit-vimentin. Sera were obtained from ACPA RA patients and samples with highly positive ACPA levels were selected (≥100 U/ml) using commercial CCP ELISA test (INOVA). ELISA test was performed with each of the citrullinated peptides: cit-filaggrin (HQCHQESTCitGRSRGRCGRSGS) set forth in SEQ ID NO: 3, cit-β-fibrinogen (CitPAPPPISGGGYCitACit) set forth in SEQ ID NO: 2, cit-collagen (ACitGLTGCitPGDAK) set forth in SEQ ID NO: 21 and cit-vimentin (SAVRACitSSVPGVRK) set forth in SEQ ID NO: 22. Sera were diluted in PBS to obtain a reactivity of approximately 50% binding OD under standard assay conditions. Increasing concentrations of Cit-ME peptide were added to the diluted sera and incubated for two hours at room temperature. Specimens were then assayed in ELISA plates coated with each one of the peptides. […] Thus, ACPA have binding specificity to Cit-ME.
A general note: An ELISA detects its analyte on a solid surface through an enzyme-linked reagent.

Assay [2] relates to anti cit-β-fibrinogen ACPA. As to the kind of experiment: Peptide inhibition assay in ELISA, plates coated with cit-β-fibrinogen. The following applies: sera of ACPA-positive RA patients diluted to about 50% binding OD, 2 h preincubation at room temperature. The arrangement: species or system human. Here is the method: as §1
Another assay relates to anti cit-collagen ACPA. The assay can be described thus: Peptide inhibition assay in ELISA, plates coated with cit-collagen. The arrangement: species or system human. The following applies: sera of ACPA-positive RA patients diluted to about 50% binding OD, 2 h preincubation at room temperature. Here is the method: as §1
The test system of another assay is TNF-α. The assay can be described thus: TNF-α gene expression in mononuclear cells derived from synovial fluid of RA patients, real-time PCR. In kind it is cell-based, human. As to conditions: 24 h, compared to the non-citrullinated peptides. The procedure: (§2) To assess the effect of the Cit-ME peptide (SEQ ID NO: 1) on inflammatory related genes expression, peripheral blood mononuclear cells derived from synovial fluid rheumatoid arthritis patients were incubated with the Cit-ME multi-epitope citrullinated peptide for 24 h. The effect of the peptide on gene expression was compared also to the effect of infliximab, a TNF-α blocker, which is an antirheumatic drug that acts as an anti-inflammatory compound. […] Results were determined by real-time PCR.
Background: In qPCR the cycle at which signal appears reflects the starting amount.

The test system of another assay is IFN-γ. As to the kind of experiment: IFN-γ gene expression in mononuclear cells derived from synovial fluid of RA patients, real-time PCR. It counts as cell-based, human. As to conditions: 24 h, compared to the non-citrullinated peptides. Here is the method: as §2
The next assay deals with pathogenic Th17 cells. As to the kind of experiment: Pathogenic Th17 cell proportion in PBMC of RA patients, FACS. It counts as cell-based, human. As to conditions: 48 hours, PMA, ionomycin and brefeldin A in last 4 hours, compared with non-citrullinated matched peptide. Here is the method: To assess ability of the citrullinated peptides to affect the pathogenic Th17 cells population proportion, peripheral blood mononuclear cells of rheumatoid arthritis patients were cultured in the presence of citrullinated peptides, non-citrullinated peptides and Infliximab for 48 hours. In the last 4 hours phorbol12-myristate 13-acetate (PMA), ionomycin and brefeldin A were added to the culture. Thereafter cells were stained with antibodies against CD3 and IL-17. As shown in FIGS. 7A-7H, significant down-regulation in the mean percentage of pathogenic Th17 cells was detected following incubation with the citrullinated peptides: decrease of 21% (Fil-Cit; E), 5% (β-Fib-Cit; F), and 26% (Cit-ME; G) as compared with the non-citrullinated matched peptides (FIG. 7A-7C, respectively). Mean percentage of pathogenic Th17 cells in the presence of Infliximab was decreased by 48% (FIG. 7H) as compared to medium (FIG. 7D).

For assay [3], the system named is AIA rats. The assay can be described thus: Adjuvant-Induced Arthritis (AIA) in rats, paw swelling and clinical signs. It counts as in vivo, rat.
The subject of assay [4] is AIA rats. The assay can be described thus: Histological signs of arthritis in ankle joints of AIA rats. In kind it is in vivo, rat. As to conditions: day 28 post disease induction, H&E, untreated 1.75±0.41. The procedure:
To evaluate the histological signs of arthritis, rats were sacrificed and ankle joints were collected on day 28 post disease induction. The joints were fixed immediately for 24 hours in 4% paraformaldehyde, then decalcified in rapid bone decalcifier (RDO; Apex Engineering, Plainfield, Ill., USA) for 6 hours at room temperature, and further fixed in 4% paraformaldehyde before embedding in paraffin. Sections (5 μm thick) were rehydrated in a graded ethanol series and stained with haematoxylin & eosin (H&E). FIGS. 11A to 11C show representative H&E stained joint tissue sections (magnification ×100). Arrowheads denote the infiltrated zones, scale bar=200 μm. The specimens were scored for severity of inflammation in the synovium, pannus formation, cartilage, and bone erosion. A close correlation between the clinical signs and the histopathological findings was found.

Another assay concerns CD4+IL-17+ T cells. The assay can be described thus: CD4+IL-17+ T cells in the spleen of AIA rats, FACS. It counts as in vivo, rat. The procedure:
Distribution of pathogenic CD4^+IL-17^+ T cells in the spleen of experimental rats was assessed by FACS.

Another assay deals with IL-17. The assay can be described thus: IL-17 mRNA expression in the spleen of AIA rats, RT-PCR. It counts as in vivo, rat. As to conditions: spleens of AIA rats, 8 rats per treatment, compared to control. The procedure:
To validate the effect of the peptides on CD4^+IL-17^+ populations as determined by FACS, the expression of IL-17 in the spleen was evaluated using RT-PCR. cDNA was extracted from the spleens of 8 rats per treatment (including control), and gene expression of IL-17 was assessed using the following RT-PCR primers: forward 5′-TGGCGGTTCTCCTTCAGTC-3′ (SEQ ID NO: 17) and reverse 5′-[…]-3′ (SEQ ID NO: 18). […] Thus, the RT-PCR data was in line with the FACS analyses.

Assay [5] concerns T cells derived from the spleen. As to the kind of experiment: Apoptosis of T cells from the spleen of AIA rats, Annexin V/PI staining. It counts as in vivo, rat. As to conditions: gated for PI and CD4+, two independent experiments, control 13±1%. Here is the method: To assess apoptosis of T cells derived from the spleen of treated rats, the Annexin V/PI staining method was preformed. FIGS. 14A-14C are representative histograms of cells treated with Cit-Me (FIG. 14A), non-Cit-Me (FIG. 14B) or untreated (FIG. 14C). The histograms present apoptosis measured by Annexin V^+. First, cells were gated for PI and CD4^+ and next analyzed for percentage of Annexin-V positive cells. […] A significant increase (p<0.01) in the mean apoptotic rate was determined in cells from the spleen of Cit-ME treated rats (19.5±1.8%) in comparison with Non-Cit-ME or control (13.8±1.3% and 13±1%, respectively).

Another assay concerns FAS receptor. The assay can be described thus: FAS mRNA expression in splenocytes of AIA rats, RT-PCR. It counts as in vivo, rat. The following applies: compared to Non-Cit-ME and control groups. Here is the method:
To examine whether Cit-ME affects apoptosis through the FAS receptor pathway, FAS mRNA expression in splenocytes was evaluated (FIG. 14F), using the following RT-PCR primers: forward 5′-TGGCTGTCCTGCCTCTGGT-3′ (SEQ ID NO: 19) and reverse 5′-[…]-3′ (SEQ ID NO: 20).

“VCitLCitSSVESTCitGRSCitPAPPPACitGLT [Cit-ME]”: the “amount of peptide sufficient to impair binding of specific ACPA to cit-filaggrin” value in assay [1] fell in the range of 10 to 200 µg. For the same substance, the “amount of peptide sufficient to impair binding of specific ACPA to cit-β-fibrinogen” value in assay [2] was in the range of 10 to 200 µg. Moreover, in the assay with anti cit-collagen ACPA, the “amount of peptide sufficient to impair binding of specific ACPA to cit-collagen” value fell in the range of 10 to 200 µg. For the same substance, in the assay on TNF-α, the “expression of TNF-α” value is given as “down-regulated”. The “expression of IFN-γ” value in the assay on IFN-γ is “down-regulated”. The “decrease in mean percentage of pathogenic Th17 cells” value in the assay with pathogenic Th17 cells turned out to be 26%. Besides, in the assay with AIA rats [3] (AIA Lewis female rats, 10 subcutaneous injections of 300 μg/rat on alternate days from day 7, up to day 21 post disease induction), the “mean paw swelling / arthritis signs” value was “significant reduced mean paw swelling”. The “maximum value of mean paw diameter” value with AIA rats [3] (AIA rats, 8 subcutaneous injections of 300 μg per rat on alternate days from day 7, mean±SE, untreated 4.61±0.17 on day 14) was 3.81±0.11 mm. Besides, the “arthritis severity / symptoms at day 27 after disease induction” value with AIA rats [3] (AIA rats, 10 subcutaneous injections of 300 μg/rat on alternate days, compared with β-Fib-Cit and untreated rats) is “reduced the arthritis severity”. In the assay on AIA rats [4], this substance displayed a histological inflammatory score of 0.54±0.2. For the same substance, in the assay on CD4+IL-17+ T cells (AIA rats, n=8, untreated 1.14±0.2), the “population of CD4+IL-17+-expressing splenocytes, statistical analysis” value was 0.68±0.1. Also, the “IL-17+ population, representative results” value with CD4+IL-17+ T cells (spleen of AIA rats, untreated 2%) is 0.6%. The “mean relative expression level of IL-17 mRNA” value in the assay on IL-17 is “significant reduction”. The “mean apoptotic rate (Annexin-V positive cells)” value in assay [5] amounted to 19.5±1.8%. In addition, in the assay on FAS receptor, the “mean relative expression level of FAS mRNA” value is “significantly higher”.
